{"source": "patent US7109193B2", "about": "“Tricyclic diazepines tocolytic oxytocin receptor antagonists” (Wyeth, priority 2001, dated 2006)"}
{"target": "T1, human oxytocin receptor (Homo sapiens, UniProt P30559)", "T1 construct": "host or cells: CHO cells (pcDNA3.1 vector)", "T1 sequence (P30559 1-389)": "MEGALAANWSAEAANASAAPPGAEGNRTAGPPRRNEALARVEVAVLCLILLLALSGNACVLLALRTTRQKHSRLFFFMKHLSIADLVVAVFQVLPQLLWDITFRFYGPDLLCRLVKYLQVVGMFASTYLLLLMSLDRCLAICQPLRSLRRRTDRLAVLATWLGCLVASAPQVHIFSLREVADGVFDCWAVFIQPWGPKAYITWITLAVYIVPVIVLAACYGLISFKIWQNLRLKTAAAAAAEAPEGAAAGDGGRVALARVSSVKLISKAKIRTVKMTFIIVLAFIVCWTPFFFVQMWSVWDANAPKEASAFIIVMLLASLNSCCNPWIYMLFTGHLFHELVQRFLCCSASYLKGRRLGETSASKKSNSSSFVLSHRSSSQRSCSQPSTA", "assay": "Oxytocin binding in Chinese Hamster Ovary cell membranes expressing human oxytocin receptors", "details": "100 nM, CHO cell membranes, [3H]oxytocin, values without parentheses, read-out: OT % inhibition @ 100% nM", "units": {"inhibition at 0.1 µM": "%"}}
{"smiles": "COc1cc(C(=O)N2Cc3ccc(C(=O)NCCC4CCCN4C)n3Cc3ccccc32)ccc1-c1cccc2ccccc12", "note": "(stereo not drawn) [Example 170, 10-[3-Methoxy-4-(1-naphthyl)benzoyl]-N-[2-(1-methyl-2-pyrrolidinyl)ethyl]-10,11-dihydro-5H-pyrrolo[2,1-c][1,4]benzodiazepine-3-carboxamide]", "inhibition at 0.1 µM": 47}
{"smiles": "COc1cccc(-c2ccc(C(=O)N3Cc4ccc(C(=O)N5CCN(C(C)C)CC5)n4Cc4ccccc43)cc2OC)c1", "note": "[Example 242, {10-[(2,3′-Dimethoxy[1,1′-biphenyl]-4-yl)carbonyl]-10,11-dihydro-5H-pyrrolo[2,1-c][1,4]benzodiazepin-3-yl}(4-isopropyl-1-piperazinyl)methanone]", "inhibition at 0.1 µM": 69}
{"smiles": "Cc1ccccc1-c1ccc(C(=O)N2Cc3ccc(C(=O)NCCC4CCCN4C)n3Cc3ccccc32)cc1C", "note": "(stereo not drawn) [Example 163, 10-[(2,2′-Dimethyl[1,1′-biphenyl]-4-yl)carbonyl]-N-[2-(1-methyl-2-pyrrolidinyl)ethyl]-10,11-dihydro-5H-pyrrolo[2,1-c][1,4]benzodiazepine-3-carboxamide]", "inhibition at 0.1 µM": 82}
{"smiles": "COc1ccccc1-c1ccc(C(=O)N2Cc3ccc(C(=O)N(C)C4CCN(C)C4)n3Cc3ccccc32)cc1OC", "note": "(stereo not drawn) [Example 193, 10-[(2,2′-Dimethoxy[1,1′-biphenyl]-4-yl)carbonyl]-N-methyl-N-(1-methyl-3-pyrrolidinyl)-10,11-dihydro-5H-pyrrolo[2,1-c][1,4]benzodiazepine-3-carboxamide]", "inhibition at 0.1 µM": 96}
{"smiles": "COc1cc(-c2ccccc2C)c(Cl)cc1C(=O)N1Cc2ccc(C(=O)N3CCN(CCN4CCOCC4)CC3)n2Cc2ccccc21", "note": "[Example 217, {10-[(6-Chloro-3-methoxy-2′-methyl[1,1′-biphenyl]-4-yl)carbonyl]-10,11-dihydro-5H -pyrrolo[2,1-c][1,4]benzodiazepin-3-yl}{4-[2-(4-morpholinyl)ethyl]-1-piperazinyl}methanone]", "inhibition at 0.1 µM": 98}
{"smiles": "COc1ccccc1-c1ccc(C(=O)N2Cc3ccc(C(=O)N(C)C4CCN(C)C4)n3Cc3ccccc32)cc1C", "note": "(stereo not drawn) [Example 185, 10-[(2′-Methoxy-2-methyl[1,1′-biphenyl]-4-yl)carbonyl]-N-methyl-N-(1-methyl-3-pyrrolidinyl)-10,11-dihydro-5H-pyrrolo[2,1-c][1,4]benzodiazepine-3-carboxamide]", "inhibition at 0.1 µM": 95}
{"smiles": "COc1ccccc1-c1ccc(C(=O)N2Cc3ccc(C(=O)NCCC4CCCN4C)n3Cc3ccccc32)cc1C", "note": "(stereo not drawn) [Example 162, 10-[(2′-Methoxy-2-methyl[1,1′-biphenyl]-4-yl)carbonyl]-N-[2-(1-methyl-2-pyrrolidinyl)ethyl]-10,11-dihydro-5H-pyrrolo[2,1-c][1,4]benzodiazepine-3-carboxamide]", "inhibition at 0.1 µM": 71}
{"smiles": "Cc1ccccc1-c1ccc(C(=O)N2Cc3ccc(C(=O)N4CCN(CCN(C)C)CC4)n3Cc3ccccc32)cc1C", "note": "[Example 198, {4-[2-(Dimethylamino)ethyl]-1-piperazinyl}{10-[(2,2′-dimethyl[1,1′-biphenyl]-4-yl)carbonyl]-10,11-dihydro-5H-pyrrolo[2,1-c][1,4]benzodiazepin-3-yl}methanone]", "inhibition at 0.1 µM": 94}
{"smiles": "COc1ccccc1-c1ccc(C(=O)N2Cc3ccc(C(=O)N(C)C4CCN(C)CC4)n3Cc3ccccc32)cc1OC", "note": "[Example 183, 10-[(2,2′-Dimethoxy[1,1′-biphenyl]-4-yl)carbonyl]-N-methyl-N-(1-methyl-4-piperidinyl)-10,11-dihydro-5H-pyrrolo[2,1-c][1,4]benzodiazepine-3-carboxamide]", "inhibition at 0.1 µM": 97}
{"smiles": "COc1cccc(-c2cc(OC)c(C(=O)N3Cc4ccc(C(=O)NCCC5CCCN5C)n4Cc4ccccc43)cc2Cl)c1", "note": "(stereo not drawn) [Example 169, 10-[(6-Chloro-3,3′-dimethoxy[1,1′-biphenyl]-4-yl)carbonyl]-N-[2-(1-methyl-2-pyrrolidinyl)ethyl]-10,11-dihydro-5H-pyrrolo[2,1-c][1,4]benzodiazepine-3-carboxamide]", "inhibition at 0.1 µM": 36}
{"smiles": "COc1cc(C(=O)N2Cc3ccc(C(=O)N4CCN(C(C)C)CC4)n3Cc3ccccc32)ccc1-c1cccc2ccccc12", "note": "[Example 236, (4-Isopropyl-1-piperazinyl){10-[3-methoxy-4-(1-naphthyl)benzoyl]-10,11-dihydro-5H -pyrrolo[2,1-c][1,4]benzodiazepin-3-yl}methanone]", "inhibition at 0.1 µM": 46}
{"smiles": "Cc1ccccc1-c1ccc(C(=O)N2Cc3ccc(C(=O)N4CCN(C(C)C)CC4)n3Cc3ccccc32)cc1C", "note": "[Example 233, {10-[(2,2′-Dimethyl[1,1′-biphenyl]-4-yl)carbonyl]-10,11-dihydro-5H-pyrrolo[2,1-c][1,4]benzodiazepin-3-yl}(4-isopropyl-1-piperazinyl)methanone]", "inhibition at 0.1 µM": 86}
{"smiles": "COc1cc(C(=O)N2Cc3ccc(C(=O)NCCN4CCCCC4)n3Cc3ccccc32)ccc1-c1cccc2ccccc12", "note": "[Example 157, 10-[3-Methoxy-4-(1-naphthyl)benzoyl]-N-[2-(1-piperidinyl)ethyl]-10,11-dihydro-5H-pyrrolo[2,1-c][1,4]benzodiazepine-3-carboxamide]", "inhibition at 0.1 µM": 38}
{"smiles": "Cc1cc(C(=O)N2Cc3ccc(C(=O)NCCC4CCCN4C)n3Cc3ccccc32)ccc1-c1ccccc1C(F)(F)F", "note": "(stereo not drawn) [Example 174, N-[2-(1-Methyl-2-pyrrolidinyl)ethyl]-10-{[2-methyl-2′-(trifluoromethyl)[1,1′-biphenyl]-4-yl]carbonyl}-10,11-dihydro-5H-pyrrolo[2,1-c][1,4]benzodiazepine-3-carboxamide]", "inhibition at 0.1 µM": 59}
{"smiles": "Cc1ccccc1-c1ccc(C(=O)N2Cc3ccc(C(=O)N4CCN(CCN(C)C)CC4)n3Cc3ccccc32)cc1", "note": "[Example 200, {4-[2-(Dimethylamino)ethyl]-1-piperazinyl}{10-[(2′-methyl[1,1′-biphenyl]-4-yl)carbonyl]-10,11-dihydro-5H-pyrrolo[2,1-c][1,4]benzodiazepin-3-yl}methanone]", "inhibition at 0.1 µM": 87}
{"smiles": "COc1cc2c(cc1OC)N(C(=O)c1ccc(-c3ccccc3C(F)(F)F)c(C)c1)Cc1cccn1C2", "note": "[Example 12, 7,8-Dimethoxy-[10,11-dihydro-5H-pyrrolo[2,1-c][1,4]benzodiazepin-10-yl][2-methyl-2′-(trifluoromethyl)[1,1′-biphenyl]-4-yl]methanone]", "inhibition at 0.1 µM": 21}
{"smiles": "Cc1cc(C(=O)N2Cc3ccc(C(=O)N4CCN(C(=O)OC(C)(C)C)CC4)n3Cc3ccccc32)ccc1-c1ccccc1C(F)(F)F", "note": "[Example 6, 4-[[10,11-Dihydro-10-[[2-methyl-2′-trifluoromethyl[1,1′-biphenyl]-4-yl]carbonyl]-5H-pyrrolo[2,1-c][1,4]benzodiazepin-3-yl]carbonyl]-1-piperazine-carboxylic acid, tert-butyl ester]", "inhibition at 0.1 µM": 56}
{"smiles": "COc1ccccc1-c1ccc(C(=O)N2Cc3ccc(C(=O)N4CCN(C(C)C)CC4)n3Cc3ccccc32)cc1OC", "note": "[Example 241, {10-[(2,2′-Dimethoxy[1,1-biphenyl]4-yl)carbonyl]-10,11-dihydro-5H-pyrrolo[2,1-c][1,4]benzodiazepin-3-yl}(4-isopropyl-1-piperazinyl)methanone]", "inhibition at 0.1 µM": 51}
{"smiles": "COc1cc(C(=O)N2Cc3ccc(C(=O)N(C)C4CCN(C)C4)n3Cc3ccccc32)ccc1-c1cccc2ccccc12", "note": "(stereo not drawn) [Example 192, 10-[3-Methoxy-4-(1-naphthyl)benzoyl]-N-methyl-N-(1-methyl-3-pyrrolidinyl)-10,11-dihydro-5H-pyrrolo[2,1-c][1,4]benzodiazepine-3-carboxamide]", "inhibition at 0.1 µM": 91}
{"smiles": "COc1ccccc1-c1ccc(C(=O)N2Cc3ccc(C(=O)N4CCN(CCN(C)C)CC4)n3Cc3ccccc32)cc1OC", "note": "[Example 204, {10-[(2,2′-Dimethoxy[1,1′-biphenyl]-4-yl)carbonyl]-10,11-dihydro-5H-pyrrolo[2,1-c][1,4]benzodiazepin-3-yl}{4-[2-(dimethylamino)ethyl]-1-piperazinyl}methanone]", "inhibition at 0.1 µM": 72}
{"smiles": "COc1cc(-c2ccccc2C)c(Cl)cc1C(=O)N1Cc2ccc(C(=O)N(C)C3CCN(C)CC3)n2Cc2ccccc21", "note": "[Example 180, 10-[(6-Chloro-3-methoxy-2′-methyl[1,1′-biphenyl]-4-yl)carbonyl]-N-methyl-N-(1-methyl-4-piperidinyl)-10,11-dihydro-5H-pyrrolo[2,1-c][1,4]benzodiazepine-3-carboxamide]", "inhibition at 0.1 µM": 98}
{"smiles": "C=CCN1CCN(C(=O)c2ccc3n2Cc2ccccc2N(C(=O)c2ccc(-c4ccccc4C)cc2)C3)CC1", "note": "[Example 224, (4-Allyl-1-piperazinyl){10-[(2′-methyl[1,1′-biphenyl]-4-yl)carbonyl]-10,11-dihydro-5H -pyrrolo[2,1-c][1,4]benzodiazepin-3-yl}methanone]", "inhibition at 0.1 µM": -3}
{"smiles": "COc1cc(-c2ccccc2C)c(Cl)cc1C(=O)N1Cc2ccc(C(=O)N(C)C3CCN(C)C3)n2Cc2ccccc21", "note": "(stereo not drawn) [Example 190, 10-[(6-Chloro-3-methoxy-2′-methyl[1,1′-biphenyl]-4-yl)carbonyl]-N-methyl-N-(1-methyl-3-pyrrolidinyl)-10,11-dihydro-5H-pyrrolo[2,1-c][1,4]benzodiazepine-3-carboxamide]", "inhibition at 0.1 µM": 99}
{"smiles": "Cc1cc(C(=O)N2Cc3ccc(C(=O)N4CCN(C(C)C)CC4)n3Cc3ccccc32)ccc1-c1ccccc1C(F)(F)F", "note": "[Example 240, (4-Isopropyl-1-piperazinyl)(10-{[2-methyl-2′-(trifluoromethyl)[1,1′-biphenyl]-4-yl]carbonyl}-10,11-dihydro-5H-pyrrolo[2,1-c][1,4]benzodiazepin-3-yl)methanone]", "inhibition at 0.1 µM": 62}
